Laboratory results reported in patent publication US9522198B2, “Methods and compositions related to targeting tumors and wounds” (Sanford-Burnham Medical Research Institute, priority 2006, dated 2016).
“Also recorded” adds a separate entry of the source. Ends that are not written are not given here.

Legend:
[1] = test system: mouse Lewis lung carcinoma; assay: Peptide overlay assay on frozen tumor sections; assay type: binding
Method: (§1) The mice were perfused through the heart 3 hours after the peptide injection and tissues removed for examination. For fibrin and fibronectin immunostaining, tissues were fixed with 4% paraformaldehyde and stained with biotinylated mouse fibrin(ogen) antiserum (Nordic Immunological Laboratories) or a polyclonal anti-mouse fibronectin (Chemicon), followed by streptavidin Alexa 594 or anti-rabbit Alexa 594 (Molecular Probes), respectively. For peptide overlay, sections of frozen OCT embedded tissue were incubated with 10 μg/ml fluorescein-conjugated peptide for 30 min at room temperature. Tissue fluorescence was quantified using Image-Pro Plus software. At least two images from representative microscopic fields were analyzed from each tissue sample and data from individual mice that received the same treatment (n=2-8) were pooled.

PPC1 xenograft tumor = assay: Peptide overlay assay on frozen tumor sections; assay type: binding; conditions: PPC1 xenografts
Method: as §1

fibrin(ogen) = assay: Co-localization of injected peptide with fibrin staining in tumor sections; assay type: in vivo, mouse; conditions: MDA-MB-435 xenograft sections, i.v. injected peptide
Method: as §1

[2] = test system: human clinical breast cancers; assay: Peptide overlay assay on frozen tumor sections; assay type: binding; conditions: two clinical breast cancers
Method: (§2) B16F1 mouse melanoma, Lewis lung carcinoma, C8161 human melanoma, MDA-MB-435 human breast cancer, and PPC-1 human prostate cancer cells (American Type Culture Collection) were maintained in RPMI or DMEM supplemented with 10% FCS. Human tumor cells (1×10^6) were injected into the mammary fat pad or the flank of nude BALB/c nu/nu mice to induce tumors. MMTV PyMT mice were provided by Dr. Robert Oshima (Burnham Institute for Medical Research, La Jolla, Calif.). The MMTV PyMT mice develop breast cancer under the influence of a polyoma middle T antigen driven by the mouse tumor virus promoter (Siegel, P. M., Ryan, E. D., Cardiff, R. D., Muller W. J. (1999) EMBO J., 18, 2149-64). […]
(§3) The mice were perfused through the heart 3 hours after the peptide injection and tissues removed for examination. […] Tissue fluorescence was quantified using Image-Pro Plus software. At least two images from representative microscopic fields were analyzed from each tissue sample and data from individual mice that received the same treatment (n=2-8) were pooled.

[3] = test system: orthotopic MDA-MB-435 xenograft tumors; assay: Tumor homing of i.v. injected fluorescein-conjugated peptides, MDA-MB-435 xenografts; assay type: in vivo, mouse
Excerpt: To determine whether the CLT peptides would recognize clotted plasma proteins in vivo, the peptides were synthesized as fluorescein conjugates and imaged their accumulation in tumors. Mice bearing orthotopic MDA-MB-435 xenograft tumors were intravenously injected with fluorescein-conjugated CLT1 (n=6), CLT2 (n=4), or a control peptide (n=4) with the sequence KAREC (SEQ ID NO: 5).
B16F1 mouse melanoma, Lewis lung carcinoma, C8161 human melanoma, MDA-MB-435 human breast cancer, and PPC-1 human prostate cancer cells (American Type Culture Collection) were maintained in RPMI or DMEM supplemented with 10% FCS. Human tumor cells (1×10^6) were injected into the mammary fat pad or the flank of nude BALB/c nu/nu mice to induce tumors. MMTV PyMT mice were provided by Dr. Robert Oshima (Burnham Institute for Medical Research, La Jolla, Calif.). The MMTV PyMT mice develop breast cancer under the influence of a polyoma middle T antigen driven by the mouse tumor virus promoter (Siegel, P. M., Ryan, E. D., Cardiff, R. D., Muller W. J. (1999) EMBO J., 18, 2149-64). B16F1 tumors induced by injecting 1×10^6 cells subcutaneously were grown in the flank of fibrinogen knock-out mice (Suh, T. T., Holmback, K., Jensen, N. J., Daugherty, C. C., Small, K., Simon, D. I., Potter, S., & Degen, J. L. (1995) Genes Dev. 9, 2020-2033), and of transgenic plasma fibronectin-deficient C57BL/6-Fn(f1/f1) Mx-Cre^+ (Sakai, T., Johnson, K. J., Murozono, M., Sakai, K., Magnuson, M. A., Wieloch, T., Cronberg, T., Isshiki, A., Erickson, H. P., & Fassler R. (2001) Nat. Med. 7, 324-30) and their wild type littermates. Deletion of the fibronectin gene in the liver was induced by poly(I):poly(C) (Yi, M., Sakai, T., Fassler, R., & Ruoslahti, E. (2003) Proc. Natl. Acad. Sci. USA. 100, 11435-11438). Frozen human tissues from clinical breast cancers were provided by the Western Division of the NCI Cooperative Human Tissue Network (Vanderbilt University Medical Center, Nashville, Tenn.).
Peptides were synthesized and conjugated to fluorescein isothiocyanate as described (Laakonen et al. PNAS 2004), and cyclized by exposure to air.
Imaging under a blue light, and examination of the distribution of fluorescein-conjugated peptides after tail vein injection have been described (Hoffman, R. M. (2005) Nature Reviews Cancer 5, 796-806; Laakkonen, P., Akerman, M. E., Biliran, H., Yang, M., Ferrer, F., Karpanen, T., Hoffman, R. M., & Ruoslahti E. (2004) Proc. Natl. Acad. Sci. USA 101, 9381-6).
The imaging methods are briefly described as follows: A Leica fluorescence stereomicroscope, model LZ12, equipped with a 50-W mercury lamp, was used for high-magnification imaging. Selective excitation of GFP was produced through a D425y60 band-pass filter and 470 DCXR dichroic mirror. Emitted fluorescence was collected through a long-pass filter GG475 (Chroma Technology, Brattleboro, Vt.) on a Hamamatsu C5810 3-chip cooled color charge-coupled device camera (Hamamatsu Photonics Systems, Bridgewater, N.J.). Images were processed for contrast and brightness and analyzed with the use of IMAGE PRO PLUS 3.1 software (Media Cybernetics, Silver Springs, Md.). Images of 1,024×724 pixels were captured directly on an IBM PC or continuously through video output on a high-resolution Sony VCR model SLV-R1000 (Sony, Tokyo). Imaging at lower magnification that visualized the entire animal was carried out in a light box illuminated by blue light fiber optics (Lightools Research, Encinitas, Calif.) and imaged by using the thermoelectrically cooled color charge-coupled device camera, as described above (Yang, M., Baranov, E., Jiang, P., Sun, F-X., Li, X-M., Li, L., Hasegawa, S., Bouvet, M., Al-Tuwaijri, M., Chishima, T., et al (2000) Proc. Natl. Acad. Sci. USA 97, 1206-11).
The mice were perfused through the heart 3 hours after the peptide injection and tissues removed for examination. […]

B16F1 tumors = assay: Homing to B16F1 tumors in wild type, fibrinogen knockout and plasma fibronectin-deficient mice; assay type: in vivo, mouse
Excerpt: Knockout mice were employed to study the role of fibrin(ogen) and fibronectin in the homing of the CLT peptides to tumors. Fibrinogen knockout mice are viable (Palumbo, J. S., Kombrinck, K. W., Drew, A. F., Grimes, T. S., Kiser, J. H. Jay L. Degen, J. L. & Bugge, T. H. (2000), Blood 96, 3302-3309) and were used as tumor recipients. Complete absence of fibronectin is lethal, but mice that lack plasma fibronectin can be generated by postnatally deleting the fibronectin gene in the liver (Sakai, T., Johnson, K. J., Murozono, M., Sakai, K., Magnuson, M. A., Wieloch, T., Cronberg, T., Isshiki, A., Erickson, H. P., & Fassler R. (2001) Nat. Med. 7, 324-30). The CLT peptides homed to B16F1 tumors grown in wild type C57BL/6 mice (n=10) producing a fibrillar meshwork (CLT1; FIG. 3D). In contrast, only faint, evenly distributed fluorescence was present in tumors (n=4) grown in the fibrinogen knockout mice (which lack the ability to produce fibrin) (FIG. 3E). […] Unlike in the fibrinogen knockout mice, there was no residual peptide binding to the tumors in the plasma fibronectin-deficient mice (FIG. 3H).
as §2, with “Calif.).” for “Calif.). The MMTV PyMT mice develop breast cancer under the influence of a polyoma middle T antigen driven by the mouse tumor virus promoter (Siegel, P. M., Ryan, E. D., Cardiff, R. D., Muller W. J. (1999) EMBO J., 18, 2149-64).”
as §3

[4] = 500 μg fluorescein-conjugated peptide i.v., 3 h

In the case of “CGLIIQKNEC (also: cyclic, ring type not given here, fluorescein conjugate, site not given here) [CLT1, cyclic decapeptide from phage library screened on plasma clots; tested as fluorescein conjugate]”, the “overlay binding in presence of control peptide” value ([1]; co-incubation with control peptide) was “not by a control peptide”, the “overlay binding in presence of unlabeled CLT peptide” value ([1]; co-incubation with unlabeled CLT1) was “inhibited; also recorded: eliminated” and the “binding pattern in peptide overlay” value ([1]; fluorescein-conjugated peptide 10 μg/ml, 30 min) was “produced a fibrillar network”. For the same sequence, the overlay binding (PPC1 xenograft tumor) was “positive”, the “co-localization of peptide fluorescence with fibrin staining” value (fibrin(ogen)) was “co-localized; also recorded: overlapping distribution” and the overlay binding [2] was “positive”. For the same sequence, the “fluorescence in control / healthy organs” value [3, 4] was “not in control organs”, the “fluorescence in tumors, whole tissues under blue light” value [3, 4] was “intense fluorescence; also recorded: strong fluorescence” and the “histological distribution of peptide fluorescence within the tumor” value ([3]; fluorescein-conjugated peptide i.v., 3 h, 400×) was “distributed in a network pattern”. For the same sequence, the “tumor homing / fluorescence on co-injection with unlabeled CLT2” value ([3]; unlabeled CLT2 in 5 fold excess) was “strongly reduced”, the “homing to B16F1 tumors” value (B16F1 tumors; plasma fibronectin-deficient mice) was “negative” and the “homing to B16F1 tumors” value (B16F1 tumors; wild type C57BL/6 mice) was “produce a fluorescent meshwork”. For the same sequence, the “homing to B16F1 tumors” value (B16F1 tumors; wild type littermates of plasma fibronectin-deficient mice) was “homes”.
